Literature values as cited in patent US10471178B2, “Implantable medical devices with increased immune tolerance, and methods for making and implanting” (AMPIO PHARMACEUTICALS, INC., priority 2011, dated 2019).

Test system: memory but not naive human T lymphocytes
Conditions: memory vs naive human T lymphocytes

In the case of C[C@@H]1NC(=O)[C@H](CC(=O)O)NC1=O [DA-DKP, Aspartate, Alanine-Diketopiperazine], the “immunomodulatory effect on human T lymphocytes” value is given as “immunomodulatory for memory but not naive human T lymphocytes”.
